We go through seven compounds from patent US20220363719A1, “Reverse Amide-Linked Melanocortin Receptor-Specific Cyclic Peptides” (Palatin Technologies, Inc., priority 2020, published 2022).

Holding throughout (type): cell-based
Test [1] concerns the target T1, hMC4r (Homo sapiens, UniProt P32245). In words: cAMP agonist activity assay performed at CEREP (HTRF), MC4. Also on record: expressed in transfected cells. To be noted: determined by CEREP, CHO-K1 cells. The method, then: (§1) Evaluation of the agonist activity of compounds at the melanocortin receptors was determined by measuring their effects on cAMP production using the HTRF detection method at CEREP (Eurofins CEREP SA, Celle-Lévescault, France). The cells were suspended in HBSS buffer (Invitrogen) complemented with 20 mM HEPES (pH 7.4) and 500 μM IBMX, then distributed in microplates and incubated in the presence of HBSS (basal control), the test compound or the reference agonist. Incubation time, temperature, cell number, reference agonist and cell line information are included in the Table 1 below. For stimulated control measurement, separate assay wells contain reference compound. Following incubation, the cells are lysed and the fluorescence acceptor (D2-labeled cAMP) and fluorescence donor (anti-cAMP antibody labeled with europium cryptate) were added. After 60 minutes at room temperature, the fluorescence transfer was measured at excitation wavelength 337 nm and emission wavelengths 620 and 665 nm using a microplate reader (Envision, Perkin Elmer). The cAMP concentration was determined by dividing the signal measured at 665 nm by that measured at 620 nm (ratio).
(§2) The results are expressed as a percent of the control response to 1 μM of the reference. […]
In general terms: In TR-FRET formats the signal depends on donor and acceptor labels being close together.

Test [2] deals with T2, hMC3r (Homo sapiens, UniProt P41968). The test is described as follows: Alternative assay for agonist activity (intracellular cAMP), HEK-293 cells, recombinant MC3r. Set-up: expressed in transfected cells; host or cells: HEK-293. Particulars: for Emax: HEK293, not CEREP, reference NDP-α-MSH, read-out: Emax percent hMC3r (percent of the maximal response obtained with the positive control); for EC50: not CEREP, cAMP HTRF. As to the method: (§3) Accumulation of intracellular cAMP was examined as a measure of the ability of the peptides to elicit a functional response in either HEK-293 cells that express recombinant MC3r or MC4r or B16-F10 (mouse) and HBL (human) cell lines that express native MC1 r. Confluent cells were detached from culture plates by incubation in enzyme-free cell dissociation buffer. Dispersed cells were suspended in Hank's Balanced Salt Solution containing 10 mM HEPES (pH 7.5), 1 mM MgCl2, 1 mM glutamine, 0.5% albumin and 0.3 mM 3-isobutyl-1-methyl-xanthine (IBMX), a phosphodiesterase inhibitor. The cells were dispensed into 96-well plates at a density of 0.5×10^5 cells per well and pre-incubated for 10 minutes. Cells were exposed for 15 minutes at 37° C. to peptides dissolved in DMSO (final DMSO concentration of 1%) at a concentration range of 0.05-5000 nM in a total assay volume of 200 μL. NDP-α-MSH was used as the reference agonist. cAMP levels were determined by an HTRF® cAMP cell-based assay system from Cisbio Bioassays utilizing cryptate-labeled anti-cAMP and D2-labeled cAMP, with plates read on a Perkin-Elmer Victor plate reader at […]. Data analysis was performed by nonlinear regression analysis with Graph-Pad Prism® software. The maximum efficacies of the test peptides were compared to that achieved by the reference melanocortin agonist NDP-α-MSH.

The target in test [3] is T3, mMC1r (Mus musculus, UniProt Q01727). In words: Alternative assay for agonist activity (intracellular cAMP), B16-F10 cells, native MC1r. Also on record: B16-F10 (mouse) and HBL (human) cell lines that express native MC1 r; endogenous in cells; host or cells: B16-F10 mouse melanoma cells. To be noted: not CEREP; for EC50: cAMP HTRF; for Emax: reference NDP-α-MSH, read-out: Emax percent mMC1r (percent of the maximal response obtained with the positive control). The method, then: as §3

Test [4] has as its target T3, mMC1r. The test is described as follows: cAMP agonist activity assay performed at CEREP (HTRF), MC1. Particulars: determined by CEREP, B16-F1 cells; for EC50: cAMP HTRF; for Emax: control NDP-alpha-MSH, read-out: Emax percent mMC1r* (percent of the maximal response obtained with the positive control). The method, then:
as §1
(§4) The results are expressed as a percent of the control response to 1 μM of the reference. The standard reference agonist is tested in each experiment at several concentrations to generate a concentration-response curve from which its EC50 value is calculated.

For test [5], the target named is T2, hMC3r. The test is described as follows: cAMP agonist activity assay performed at CEREP (HTRF), MC3. Also on record: expressed in transfected cells. Particulars: determined by CEREP, CHO-K1 cells. The method, then: as §1, §2
The target in test [6] is T4, hMC5r (Homo sapiens, UniProt P33032).
T4 construct: Eurofins CEREP SA
The test is described as follows: cAMP agonist activity assay performed at CEREP (HTRF), MC5. Particulars: determined by CEREP, CHO-K1 cells; for EC50: cAMP HTRF; for Emax: control Alpha-MSH, read-out: Emax percent hMC5r* (percent of the maximal response obtained with the positive control). As to the method: as §1, §4

Test [7] concerns the target T1, hMC4r. The test is described as follows: Alternative assay for agonist activity (intracellular cAMP), HEK-293 cells, recombinant MC4r. Set-up: expressed in transfected cells; host or cells: HEK-293. Particulars: for Emax: HEK293, not CEREP, reference NDP-α-MSH, read-out: Emax percent hMC4r (percent of the maximal response obtained with the positive control); for EC50: not CEREP, cAMP HTRF. As to the method:
as §3

Test [8] addresses T4, hMC5r. In words: Agonist activity (EC50/Emax) at hMC5r, not determined by CEREP. To be noted: for Emax: read-out: Emax percent hMC5r (percent of the maximal response obtained with the positive control).
Test [9] concerns the target T5, hMC1r (Homo sapiens, UniProt Q01726).
T5 construct: B16-F10 (mouse) and HBL (human) cell lines that express native MC1 r; endogenous in cells; host or cells: HBL human melanoma cells
The test is described as follows: Alternative assay for agonist activity (intracellular cAMP), HBL cells, native MC1r. To be noted: not CEREP; for EC50: cAMP HTRF; for Emax: reference NDP-α-MSH, read-out: Emax percent hMC1r (percent of the maximal response obtained with the positive control). The method, then:
as §3

Where a SMILES comes first, the peptide text is derived from it. Bridges are numbered along the chain shown (N, C = ends). [ ]: non-standard residue; d: D form. The star is where a group is joined. ξ: configuration not given here. d1Nal = N[C@H](Cc1cccc2ccccc12)C(=O)O; Nle = CCCC[C@H](N)C(=O)O; Dab = NCC[C@H](N)C(=O)O; ξHyp = O=C(O)C1CC(O)CN1; Dap = NC[C@H](N)C(=O)O; Hexanoyl = CCCCCC(=O)*; Ava = NCCCCC(=O)O; Bn = c1ccc(C*)cc1; βAla = NCCC(=O)O

T3 sequence (Q01727 whole entry): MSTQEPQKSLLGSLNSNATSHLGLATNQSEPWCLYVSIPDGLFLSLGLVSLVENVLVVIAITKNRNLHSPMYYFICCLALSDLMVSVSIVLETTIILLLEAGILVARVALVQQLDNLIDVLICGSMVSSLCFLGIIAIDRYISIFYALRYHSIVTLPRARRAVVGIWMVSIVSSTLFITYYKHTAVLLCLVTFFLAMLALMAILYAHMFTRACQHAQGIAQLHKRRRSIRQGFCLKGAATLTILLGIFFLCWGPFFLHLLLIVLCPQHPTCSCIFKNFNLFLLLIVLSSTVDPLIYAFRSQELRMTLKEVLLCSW
T2 sequence (P41968 whole entry): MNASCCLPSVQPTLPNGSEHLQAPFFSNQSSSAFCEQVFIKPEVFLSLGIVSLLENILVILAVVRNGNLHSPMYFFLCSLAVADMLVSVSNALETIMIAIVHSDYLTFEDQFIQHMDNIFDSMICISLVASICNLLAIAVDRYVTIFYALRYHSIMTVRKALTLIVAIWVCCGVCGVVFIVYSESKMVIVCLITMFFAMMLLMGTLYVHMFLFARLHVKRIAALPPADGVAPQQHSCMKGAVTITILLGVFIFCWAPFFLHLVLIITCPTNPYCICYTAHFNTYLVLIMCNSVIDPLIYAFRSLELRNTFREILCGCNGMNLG
T4 sequence (P33032 whole entry): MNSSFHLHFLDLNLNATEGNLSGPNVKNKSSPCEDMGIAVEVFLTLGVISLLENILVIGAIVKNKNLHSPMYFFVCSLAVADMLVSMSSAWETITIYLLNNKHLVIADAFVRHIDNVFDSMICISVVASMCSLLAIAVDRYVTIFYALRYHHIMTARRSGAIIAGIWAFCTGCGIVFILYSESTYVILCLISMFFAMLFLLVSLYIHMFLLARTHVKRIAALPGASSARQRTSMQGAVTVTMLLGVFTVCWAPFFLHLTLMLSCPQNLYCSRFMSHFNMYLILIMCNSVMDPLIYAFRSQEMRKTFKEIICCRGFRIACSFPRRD
T5 sequence (Q01726 whole entry): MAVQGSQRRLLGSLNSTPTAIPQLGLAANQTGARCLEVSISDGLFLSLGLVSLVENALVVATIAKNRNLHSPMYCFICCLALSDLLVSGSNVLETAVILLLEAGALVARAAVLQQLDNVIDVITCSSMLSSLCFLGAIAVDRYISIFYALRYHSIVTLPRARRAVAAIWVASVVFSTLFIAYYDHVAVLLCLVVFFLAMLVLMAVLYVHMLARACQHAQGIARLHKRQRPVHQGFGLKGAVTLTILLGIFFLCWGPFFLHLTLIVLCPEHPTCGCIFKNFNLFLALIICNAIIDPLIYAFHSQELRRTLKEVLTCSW
T1 sequence (P32245 whole entry): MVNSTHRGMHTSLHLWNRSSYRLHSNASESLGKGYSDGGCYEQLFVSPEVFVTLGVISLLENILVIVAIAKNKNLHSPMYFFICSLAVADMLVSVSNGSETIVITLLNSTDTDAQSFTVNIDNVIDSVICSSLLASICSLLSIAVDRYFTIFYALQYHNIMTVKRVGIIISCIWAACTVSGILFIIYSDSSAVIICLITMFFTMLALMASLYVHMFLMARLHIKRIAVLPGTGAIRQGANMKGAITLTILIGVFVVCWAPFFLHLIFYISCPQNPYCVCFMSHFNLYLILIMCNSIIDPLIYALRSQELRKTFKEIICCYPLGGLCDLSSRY

For orientation: EC50 means the concentration at which the effect is half-maximal. For orientation: Emax means the size of the effect at its maximum, as opposed to the concentration needed. Turning to `CCCC[C@H](NC(C)=O)C(=O)N[C@H]1CCCCNC(=O)CNC(=O)[C@H](Cc2c[nH]c3ccccc23)NC(=O)[C@H](CCCNC(=N)N)NC(=O)[C@@H](Cc2cccc3ccccc23)NC(=O)C2CC(OCc3ccccc3)CN2C1=O` (some centres unmarked) [Peptide 1] (Ac-[Nle]K[ξHyp](Bn)[d1Nal]RWG; lactam 2-C), the EC50 in test [1] (cAMP HTRF) is 0.82 nM; in [2], greater than 10000 nM; in [3], 3 nM; in [4], 260 nM; in test [5] (cAMP HTRF) it was greater than 10000 nM; in [6], 0.22 nM. In test [7], the EC50 was found to be 0.5 nM. Moreover, the Emax in test [1] (control NDP-alpha-MSH, read-out: Emax percent hMC4r* (percent of the maximal response obtained with the positive control)) is 50%; in test [2], 12%; in test [3] it was 58%; in [4], 65%; in test [5] (control NDP-alpha-MSH, read-out: Emax percent hMC3r* (percent of the maximal response obtained with the positive control)) it was 9%; in [6], 110%. For the same compound, the Emax in test [7] came to 39%.

As for `CCCC[C@H](NC(C)=O)C(=O)N[C@H]1CNC(=O)CCNC(=O)[C@H](Cc2c[nH]c3ccccc23)NC(=O)[C@H](CCCNC(=N)N)NC(=O)[C@@H](Cc2cccc3ccccc23)NC(=O)C2CC(OCc3ccccc3)CN2C1=O` (some centres unmarked) [Peptide 7] (Ac-[Nle][Dap][ξHyp](Bn)[d1Nal]RW[βAla]; lactam 2-C), the EC50 in test [8] is 1 nM; in [2], greater than 10000 nM; in [3], 17 nM; in [6] it was 2 nM; in test [7], 5 nM. For the same compound, the Emax in [8] came to 71%; in [2] it was 7%; in [3], 74%; in [6] it was 97%; in [7], 26%.

With `CC(=O)N[C@@H](CCCNC(=N)N)C(=O)N[C@H]1CCNC(=O)CCCCNC(=O)[C@H](Cc2c[nH]c3ccccc23)NC(=O)[C@H](CCCNC(=N)N)NC(=O)[C@@H](Cc2ccccc2)NC(=O)[C@H](CC(N)=O)NC1=O` [Peptide 10] (Ac-R[Dab]N[dF]RW[Ava]; lactam 2-C), the 50% effective concentration (EC50) in test [8] was found to be 207 nM; in test [2], 6 nM; in [3], 113 nM; in [6], 1600 nM; in test [7] it was 0.9 nM. Also, the Emax came to 54% in test [8]; 63% in [2]; 94% in test [3]; 71% in [6]; 111% in test [7].

Regarding `CC(=O)N[C@@H](CCCNC(=N)N)C(=O)N[C@H]1CCNC(=O)CCCCNC(=O)[C@H](Cc2c[nH]c3ccccc23)NC(=O)[C@H](CCCNC(=N)N)NC(=O)[C@@H](Cc2ccc(F)cc2)NC(=O)[C@H](Cc2c[nH]cn2)NC1=O` [Peptide 16], the half-maximal effective concentration (EC50) amounted to 2 nM in [8]; 0.6 nM in test [9]; 0.01 nM in [4]; 0.71 nM in test [6]; 0.9 nM in test [7]. Besides, the Emax stood at 58% in [8]; 106% in test [9]; 108% in [4]; 60% in test [6]; 102% in test [7].

As to `CCCCCC(=O)N[C@H]1CNC(=O)CNC(=O)[C@H](CCCNC(=N)N)NC(=O)[C@@H](Cc2ccccc2)NC(=O)[C@H](Cc2c[nH]cn2)NC1=O` [Peptide 17] (Hexanoyl-[Dap]H[dF]RG; lactam 1-C), the Emax in test [2] was 12%; in test [3], 84%; in test [9], 94%; in [4] it was 83%; in [6] it was -0.5%; in [7], 14%. The EC50 in test [2] was greater than 10000 nM; in test [3], 1000 nM; in test [9], 10 nM; in test [4], 1300 nM; in [6], greater than 10000 nM; in [7], 7800 nM.

For `CCCCCC(=O)N[C@H]1CNC(O)CCNC(=O)[C@H](CCCNC(=N)N)NC(=O)[C@@H](Cc2ccccc2)NC(=O)[C@H](Cc2c[nH]cn2)NC1=O` (some centres unmarked) [Peptide 18], the Emax in test [2] was 16%; in test [3] it was 99%; in test [9] it was 89%; in [4], 90%; in test [6] it was 3%; in test [7], 68%. The concentration giving a half-maximal response (EC50) in test [2] is 7680 nM; in [3], 90 nM; in test [9] it was 5 nM; in test [4], 180 nM; in [6], greater than 10000 nM; in test [7], 2100 nM.

Consider `CCCCCC(=O)N[C@H]1CNC(=O)CCCCNC(=O)[C@H](CCCNC(=N)N)NC(=O)[C@@H](Cc2ccccc2)NC(=O)[C@H](Cc2c[nH]cn2)NC1=O` [Peptide 19] (Hexanoyl-[Dap]H[dF]R[Ava]; lactam 1-C), for which the Emax in test [2] came to 0.5%; in test [3], 80%; in test [9], 92%; in [4], 74%; in [6], 5%; in [7], 70%. In addition, the EC50 was greater than 10000 nM in test [2]; 350 nM in test [3]; 3 nM in test [9]; 2600 nM in [4]; greater than 10000 nM in test [6]; 4300 nM in test [7].
